Experiment [1] concerns the target Sphingosine 1-phosphate receptor 3 (Homo sapiens, UniProt Q99500). The experiment is described as follows: Agonist activity at human S1P3 receptor assessed as stimulation of [35S]GTPgamma binding. It is filed as functional.
The species entered for another experiment is Homo sapiens. Description: Selectivity ratio of EC50 for human S1P3 receptor to EC50 for human S1P1 receptor.
In experiment [2] the target is Sphingosine 1-phosphate receptor 1 (Homo sapiens, UniProt P21453). Description: Agonist activity at human S1P1 receptor assessed as stimulation of [35S]GTPgamma binding. The format is functional.
Sphingosine 1-phosphate receptor 1, sequence (P21453 whole entry): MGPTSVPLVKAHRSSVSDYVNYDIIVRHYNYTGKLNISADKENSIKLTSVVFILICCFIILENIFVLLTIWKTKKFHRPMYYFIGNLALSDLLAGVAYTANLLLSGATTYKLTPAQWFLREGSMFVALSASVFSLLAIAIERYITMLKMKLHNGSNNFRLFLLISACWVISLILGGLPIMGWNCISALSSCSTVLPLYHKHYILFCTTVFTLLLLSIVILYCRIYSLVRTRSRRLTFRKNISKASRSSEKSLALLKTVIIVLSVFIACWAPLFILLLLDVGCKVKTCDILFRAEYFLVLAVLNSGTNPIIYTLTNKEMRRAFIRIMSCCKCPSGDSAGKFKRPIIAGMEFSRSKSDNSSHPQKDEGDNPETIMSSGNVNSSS
The subject of experiment [3] is Rattus norvegicus. Description: Immunosuppressive activity in LEW rat model assessed as inhibition of WKAH rat spleen cells-induced popliteal lymph node swelling at 1 mg/kg, po administered qd for 4 days measured at day 4 by host versus graft reaction analysis. The format is functional. Conditions: 96 h.
The subject of experiment [4] is Rattus norvegicus. Description: Immunosuppressive activity in po dosed LEW rat model assessed as inhibition of WKAH rat spleen cells-induced popliteal lymph node swelling administered qd for 4 days measured at day 4 by host versus graft reaction analysis. It is filed as functional. Conditions: 96 h, read-out: ID50 (the source's name).

Structures are written as SMILES.

Sphingosine 1-phosphate receptor 3, sequence (Q99500 whole entry): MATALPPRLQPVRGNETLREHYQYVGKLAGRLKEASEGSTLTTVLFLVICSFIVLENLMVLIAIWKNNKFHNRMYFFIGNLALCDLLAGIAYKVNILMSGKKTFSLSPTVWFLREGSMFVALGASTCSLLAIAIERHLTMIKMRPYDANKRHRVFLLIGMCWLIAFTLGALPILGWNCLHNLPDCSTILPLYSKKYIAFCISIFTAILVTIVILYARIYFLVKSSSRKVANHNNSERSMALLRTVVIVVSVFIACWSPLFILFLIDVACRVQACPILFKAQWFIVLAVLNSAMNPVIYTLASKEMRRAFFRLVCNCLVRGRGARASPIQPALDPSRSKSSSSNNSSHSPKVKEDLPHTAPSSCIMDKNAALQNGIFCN

In the case of `CCCc1cc(CN2CC(C(=O)O)C2)sc1-c1noc(-c2ccc(Oc3ccccc3)cc2)n1`, the figures for the EC50 in experiment [1] and in experiment [2] were 13 µM and 30 nM, respectively. The Ratio EC50 in the experiment filed under Homo sapiens is 433.

On to `CCCCc1ccccc1Oc1ccc(-c2nc(-c3sc(CN4CC(C(=O)O)C4)cc3CC)no2)cc1`, for which the EC50 in experiment [1] is > 20 µM; in experiment [2] it was 9 nM. Also, the inhibition in vivo at 1 mg/kg with Rattus norvegicus [3] is 66%.

Take `O=C(O)C1CN(Cc2cc(-c3noc(-c4ccc(-c5ccccc5)cc4)n3)cs2)C1`: the EC50 is > 20 µM in experiment [1] and 30 nM in experiment [2]. In the experiment listed under Homo sapiens, the Ratio EC50 was > 666.

Consider `CCc1cc(CN2CC(C(=O)O)C2)sc1-c1noc(-c2ccc(Oc3ccccc3C)cc2)n1`, for which the results for the half-maximal effective concentration (EC50) in experiment [1] and in experiment [2] were 4.5 µM and 3 nM, respectively. In addition, the inhibition in vivo at 1 mg/kg in the experiment with Rattus norvegicus [3] stood at 35%.

Take `Cc1cccc(Oc2ccc(-c3nc(-c4csc(CN5CC(C(=O)O)C5)c4)no3)cc2)c1`: the concentration giving a half-maximal response (EC50) in experiment [1] is > 20 µM; in experiment [2], 200 nM. For the same compound, the Ratio EC50 in the experiment filed under Homo sapiens was > 100.

Regarding `O=C(O)C1CN(Cc2csc(-c3noc(-c4ccc(Oc5ccccc5)cc4)n3)c2)C1`, the EC50 in experiment [1] was > 20 µM; in experiment [2], 34 nM. Also, the Ratio EC50 in the experiment filed under Homo sapiens was > 588.

For the compound `CCc1cc(-c2noc(-c3ccc(Oc4ccccc4)cc3)n2)sc1CN1CC(C(=O)O)C1`, the 50% effective concentration (EC50) in experiment [1] is > 20 µM; in experiment [2], 12 nM. For the same compound, the Ratio EC50 in the experiment filed under Homo sapiens is > 1670.

Turning to `CCc1cc(CN2CC(C(=O)O)C2)sc1-c1noc(-c2ccc(Oc3ccccc3)cc2)n1`, the concentration giving a half-maximal response (EC50) in experiment [1] is > 20 µM; in experiment [2], 4 nM. The ED50 in the experiment on Rattus norvegicus [4] was found to be 0.407 mg/kg. For the same compound, the Ratio EC50 in the experiment listed under Homo sapiens was > 5000.

Take `CCc1ccccc1Oc1ccc(-c2nc(-c3sc(CN4CC(C(=O)O)C4)cc3CC)no2)cc1`: the EC50 stood at 10 µM in experiment [1] and 6.5 nM in experiment [2]. The inhibition in vivo at 1 mg/kg in the experiment with Rattus norvegicus [3] was determined as 62%.

For the compound `Cc1cc(-c2nc(-c3csc(CN4CC(C(=O)O)C4)c3)no2)ccc1Oc1ccccc1`, the 50% effective concentration (EC50) in experiment [1] turned out to be 3 µM; in experiment [2] it was 21 nM. The Ratio EC50 in the experiment listed under Homo sapiens came out at 142.

Turning to `CCc1cc(CN2CC(C(=O)O)C2)sc1-c1noc(-c2ccc(Oc3ccccc3)c(OC)c2)n1`, the concentration for a half-maximal effect (EC50) was > 20 µM in experiment [1] and 14 nM in experiment [2].

As for `O=C(O)C1CN(Cc2ccc(-c3noc(-c4ccc(Oc5ccccc5)cc4)n3)s2)C1`, the results for the 50% effective concentration (EC50) in experiment [1] and in experiment [2] were 0.9 µM and 1 nM, respectively. Also, the Ratio EC50 in the experiment filed under Homo sapiens was 900.

Take `Cc1cc(CN2CC(C(=O)O)C2)sc1-c1noc(-c2ccc(Oc3ccccc3)cc2)n1`: the concentration giving a half-maximal response (EC50) is > 20 µM in experiment [1] and 11 nM in experiment [2]. In addition, in the experiment listed under Homo sapiens, the Ratio EC50 is > 1820.

`O=C(O)C1CN(Cc2cc(-c3noc(-c4cc(-c5ccccc5)c(C(F)(F)F)s4)n3)cs2)C1`: the concentration giving a half-maximal response (EC50) in experiment [1] was 0.8 µM; in experiment [2] it was 6.5 nM. In addition, in the experiment filed under Homo sapiens, the Ratio EC50 is 123.

Take `Cc1cc(Oc2ccccc2)ccc1-c1nc(-c2csc(CN3CC(C(=O)O)C3)c2)no1`: the concentration giving a half-maximal response (EC50) in experiment [1] is > 20 µM; in experiment [2] it was 600 nM. Also, in the experiment listed under Homo sapiens, the Ratio EC50 is > 33.

As for `Cc1ccc(Oc2ccc(-c3nc(-c4csc(CN5CC(C(=O)O)C5)c4)no3)cc2)cc1`, the EC50 in experiment [1] worked out at 12 µM; in experiment [2], 110 nM. Further, the Ratio EC50 in the experiment filed under Homo sapiens worked out at 109.

As to `O=C(O)C1CN(Cc2cc(-c3noc(-c4cccc(-c5ccccc5)c4)n3)cs2)C1`, the concentration giving a half-maximal response (EC50) was > 20 µM in experiment [1] and 850 nM in experiment [2]. For the same compound, the Ratio EC50 in the experiment listed under Homo sapiens is > 23.

`O=C(O)C1CN(Cc2ccc(-c3noc(-c4cc(-c5ccccc5)c(C(F)(F)F)s4)n3)cc2)C1`: the EC50 came out at 1.6 µM in experiment [1] and 4.2 nM in experiment [2]. Besides, the Ratio EC50 in the experiment listed under Homo sapiens was determined as 380.

With `Cc1ccccc1Oc1ccc(-c2nc(-c3csc(CN4CC(C(=O)O)C4)c3)no2)cc1`, the EC50 in experiment [1] was found to be 2 µM; in experiment [2] it was 35 nM. Moreover, the Ratio EC50 in the experiment listed under Homo sapiens is 57.

As for `O=C(O)C1CN(Cc2cc(-c3noc(-c4ccc(Oc5ccccc5)cc4)n3)cs2)C1`, the EC50 in experiment [1] came out at 4.6 µM; in experiment [2], 8.5 nM. In addition, the Ratio EC50 in the experiment listed under Homo sapiens stood at 541.

For `CCc1cc(CN2CC(C(=O)O)C2)sc1-c1noc(-c2ccc(Oc3ccccc3Cl)cc2)n1`, the figures for the concentration for a half-maximal effect (EC50) in experiment [1] and in experiment [2] were > 20 µM and 6.5 nM, respectively. For the same compound, in the experiment with Rattus norvegicus [4], the ED50 came out at 0.461 mg/kg.

On to `CCCc1ccccc1Oc1ccc(-c2nc(-c3sc(CN4CC(C(=O)O)C4)cc3CC)no2)cc1`, for which the figures for the concentration for a half-maximal effect (EC50) in experiment [1] and in experiment [2] were > 20 µM and 13 nM, respectively. The inhibition in vivo at 1 mg/kg with Rattus norvegicus [3] came out at 56%.

Regarding `CCc1cc(CN2CC(C(=O)O)C2)sc1-c1noc(-c2ccc(Oc3ccccc3)c(F)c2)n1`, the figures for the EC50 in experiment [1] and in experiment [2] were > 20 µM and 5 nM, respectively. For the same compound, the ED50 with Rattus norvegicus [4] was 0.142 mg/kg.

In the case of `CCc1cc(CN2CC(C(=O)O)C2)sc1-c1noc(-c2ccc(Oc3ccccc3C(C)C)cc2)n1`, the EC50 in experiment [1] came to 11 µM; in experiment [2], 4.5 nM.

With `CCc1cc(CN2CC(C(=O)O)C2)sc1-c1noc(-c2ccc(Oc3ccccc3F)cc2)n1`, the EC50 in experiment [1] was > 20 µM; in experiment [2] it was 8.5 nM. In addition, the ED50 in the experiment with Rattus norvegicus [4] amounted to 0.369 mg/kg.

Consider `CCc1cc(CN2CC(C(=O)O)C2)sc1-c1noc(-c2ccc(Oc3ccccc3OC)cc2)n1`, for which the EC50 was 15 µM in experiment [1] and 4 nM in experiment [2]. Moreover, the inhibition in vivo at 1 mg/kg in the experiment on Rattus norvegicus [3] was 74%.

In the case of `CCc1cc(CN2CC(C(=O)O)C2)sc1-c1noc(-c2ccc(Oc3ccccc3)c(Cl)c2)n1`, the concentration giving a half-maximal response (EC50) in experiment [1] was > 20 µM; in experiment [2], 5 nM. In addition, the inhibition in vivo at 1 mg/kg with Rattus norvegicus [3] was found to be 49%.

Turning to `CC(C)c1cc(CN2CC(C(=O)O)C2)sc1-c1noc(-c2ccc(Oc3ccccc3)cc2)n1`, the results for the EC50 in experiment [1] and in experiment [2] were 15 µM and 75 nM, respectively. Also, the Ratio EC50 in the experiment listed under Homo sapiens came to 200.

On to `CCc1cc(CN2CC(C(=O)O)C2)sc1-c1noc(-c2ccc(Oc3ccccc3)c(C)c2)n1`, for which the 50% effective concentration (EC50) in experiment [1] is 6 µM; in experiment [2], 7.5 nM.

As for `CCCOc1ccc(-c2nc(-c3csc(CN4CC(C(=O)O)C4)c3)no2)cc1`, the EC50 in experiment [1] was > 20 µM; in experiment [2], 60 nM. Besides, in the experiment listed under Homo sapiens, the Ratio EC50 was > 333.

On to `O=C(O)C1CN(Cc2cc(-c3noc(-c4ccc(OCc5ccccc5)cc4)n3)cs2)C1`, for which the EC50 in experiment [1] was > 20 µM; in experiment [2], > 20000 nM.

Regarding `Cc1cc(-c2noc(-c3ccc(Oc4ccccc4)cc3)n2)sc1CN1CC(C(=O)O)C1`, the 50% effective concentration (EC50) was > 20 µM in experiment [1] and 25 nM in experiment [2]. For the same compound, in the experiment filed under Homo sapiens, the Ratio EC50 was > 800.

Values taken from ChEMBL document CHEMBL1949506, “Discovery of CS-2100, a potent, orally active and S1P3-sparing S1P1 agonist” (Bioorg Med Chem Lett, 2012).
